Results reported in patent US20100330093A1, “TREATMENT OF MELANOMA WITH ALPHA THYMOSIN PEPTIDES IN COMBINATION WITH ANTIBODIES AGAINST CYTOTOXIC T LYMPHOCYTE-ASSOCIATED ANTIGEN 4 (CTLA4)” (SciClone Pharmaceuticals, Inc., priority 2007, published 2010).
No end group written: not given here.

Tests used:
[1] = Body weight of B16 tumor-bearing C57BL/6 mice during treatment; type: in vivo; details: TA-1 6 mg/kg s.c. daily, alone or in combination, throughout the course of the study
Experimental: (§1) C57BL/6 mice were implanted subcutaneously with murine B16 melanoma cells (Cell Culture Center, Institute of Basic Medical Sciences, Peking Union Medical College and Chinese Academy of Medical Sciences PUMC&CAMS, Beijing, P.R.China), followed by treatment with TA-1 or DTIC alone or in combination for 14 consecutive days. The day of tumor implantation was defined as Day 0. Meanwhile 9H10 was given in two groups via i.p. on Day 3, 6 and 9. TA-1 and DTIC were administered daily by s.c. injection. In total, 5 groups of mice (n=10) were used: Group 1: vehicle; Group 2: DTIC 5 mg/kg; Group 3: TA-1 6 mg/kg; Group 4: DTIC 5 mg/kg+9H10 (Day 3 (100 μg), Day 6 (50 μg), Day 9 (50 μg)); Group 5: DTIC 5 mg/kg+TA-1 6 mg/kg+9H10 (Day 3 (100 μg), Day 6 (50 μg), Day 9 (50 μg)) (Table 1). The animals were six weeks old and weighed between 18 and 22 grams at the start of the study. Tumor volume and body weight were measured every three days, and tumor weights were measured on Day 16 at the end of the study.
Mortality and moribundity were checked twice daily, the body weights were recorded once every 3 days, and tumors were measured using a caliper once every 3 days. At the end of the study (Day 16), the animals were euthanized by CO2 asphyxiation, and the tumors were excised and weighed.

[2] = test system: murine B16 melanoma cells; assay: Subcutaneous murine B16 melanoma tumor model in C57BL/6 mice (tumor volume, tumor weight); type: in vivo; details: for percent inhibition of tumor weight (PITW): Day 16 necropsy, DTIC 5 mg/kg s.c. daily, TA-1 6 mg/kg s.c. daily, 9H10 i.p. Day 3 (100 μg), Day 6 (50 μg), Day 9 (50 μg), vs vehicle
Experimental: as §1
Phosphate buffered saline (PBS) was used as the negative control article (vehicle). TA-1 solution was stored at 2-8° C. and used up in one week. DTIC(SIGMA) was initially dissolved in 0.01 N HCl and then diluted with PBS to 1 mg/mL. DTIC dosing solution was kept on ice, protected from light, and used within one day. Final dosing solutions were prepared on the day of use by diluting the stock solution to 1× with water. The antibody reagent 9H10 (EBIOSCIENCE) was a ready-to-use agent at a concentration of 1 mg/mL.
Mortality and moribundity were checked twice daily, the body weights were recorded once every 3 days, and tumors were measured using a caliper once every 3 days. […]
Based on the tumor size, the tumor volume (TV) was calculated with the formula: [TV=(Length×Width×Width)/2]. And the percent inhibition (PI) of TV (PITV) was calculated according to the equation below: […]
The anti-tumor effect of the test article was further evaluated with tumor weight (TW) measured on day of necropsy (Day 16). The PI of TW was calculated using the equation below: […]

Row | Compound | loss of body weight [1] | mice with palpable tumors ([2]; Day 9, n=10 per group) | percent inhibition of tumor weight (PITW) [2] [%]
1 | thymosin alpha 1 (Ac-SDAAVDTSSEITTKDLKEKKEVVEEAEN; ends and bridges not checked; UniProt P06454 2-29, looked up) [TA-1, 28 amino acid peptide with a molecular weight of 3108, initially isolated from Thymosin Fraction 5] | did not cause any loss of body weight | most mice | 43.35
2 | CN(C)/N=N/c1[nH]cnc1C(N)=O [DTIC, dacarbazine, reference compound] |  |  | 28.41
